Results reported in patent publication US4064169A, “Bis-(meta-amidinophenoxy)-compounds and pharmacologically acceptable acid addition salts thereof” (Eisai Co., Ltd., priority 1976, dated 1977).

What was measured:
Assay in all cases: Antifungal Test (agar dilution M.I.C.)
Type in all cases: cell-based
Details in all cases: Table 2; 37° C., 3 days (72 hours)
[1] = system: Candida albicans NAKAGAWA IFM 4017
Experimental: (§1) Respective agar plates were prepared by dissolving compounds under test in aseptic water to make a two fold dilution series, taking each 1 milliliter of said diluted solutions and 9 ml of Sabouraud medium into a petri dish, and sufficiently admixing the same.
(§2) On the other hand, an inoculum was prepared by cultivating an examined fungus (microorganism) on the Sabouraud slant medium and suspending two loopful of the incubated fungus in 10 ml of sterilized physiological saline water.
(§3) One loopful of the inoculum was streaked on the above-mentioned agar plate. After the agar plate was incubated at a defined temperature for a predetermined period of time to determine the minimal inhibitory concentration (M.I.C.).
(§4) Incubation temperature:
(§5) Incubation time: 3 days (72 hours) and
(§6) Incubation time: 3 days (72 hours)
(§7) activity incubation conditions:
(§8) Incubation time 3 days (72 hours)
(§9) Incubation time 7 days (168 hours)
(§10) Incubation time 2 days (48 hours)

[2] = system: Candida albicans AHU 3656
Experimental: as §1, §2, §3, §4, §5, §6, §7, §8, §9, §10

[3] = system: Candida albicans Yu-1200 IFM 4020
Experimental: as §1, §2, §3, §4, §5, §6, §7, §8, §9, §10

Measured: M.I.C.

C[C@@H]1[C@H](O)[C@@H](C)/C=C/C=C/CC/C=C/C=C/C=C/C=C/C(O[C@H]2O[C@H](C)[C@@H](O)[C@H](N)[C@@H]2O)CC2O[C@](O)(CC(O)C(O)CCC(O)CC(O)CC(O)CC(=O)O[C@H]1C)CC(O)C2C(=O)O (stereo partly drawn) [Nystatin, reference compound]
6.25 µg/mL: all assays above
